Where two headings read alike, the source gives them in different places.
Assays:
in vivo = settings: for LD50 at 48 h: mouse, in vivo, po, read-out: LD 50 per os
Description: The three compounds were administered in the usual way to lots of 10 male mice (Swiss C.D.) of average weight 20 g. Mortality was assessed after 48 hours for toxicity per os.

[1] = Diuretic activity (diuresis, Na+, K+, uric acid excretion); assay type: in vivo, Male Swiss C.D. mice; settings: mice; for Uricosuria (coefficient): uric acid by Caraway's method; for Diuresis (coefficient) / K+ (coefficient) / Na+ (coefficient) / Na+/K+: urine sampled 2 and 4 hours
Description: The three compounds were administered to Male Swiss C.D. mice of average weight 22 g. The animals were deprived of food and drink for 2 hours prior to treatment.
The animals were grouped two by two in cages where their metabolism is to be monitored. Sampling of the urine 2 and 4 hours after treatment. The experiments were made per lot of six pairs. The products were administered at constant volume.
The following determinations were made:
Na^+ and K^+ ions expressed in milliequivalents (Millival or M. Eq.) excreted in 2 or 4 hours (Eppendorf Flame Photometer);
uric acid excreted expressed in mg/2 or 4 hours determined by Caraway's method (Amer. J. Clin. Pathol. 1955. 25 840).
They are considered in the form of the coefficient: [formula]

[2] = male Swiss C.D. mice, per os, mortality after 48 hours

SMILES | LD50 at 48 h (in vivo; [2]) | Uricosuria (coefficient) ([1]; 100 mg/kg P.O.) | Diuresis (coefficient) ([1]; 100 mg/kg P.O.) | K+ (coefficient) ([1]; 100 mg/kg P.O.) | Na+ (coefficient) ([1]; 100 mg/kg P.O.) | Na+/K+ ([1]; 100 mg/kg P.O.) | MLD per os (in vivo; [2]) | LD50 at 48 h (in vivo) | Uricosuria (coefficient) ([1]; 20 mg/kg P.O.) | Diuresis (coefficient) ([1]; 20 mg/kg P.O.) | K+ (coefficient) ([1]; 20 mg/kg P.O.) | Na+ (coefficient) ([1]; 20 mg/kg P.O.) | Na+/K+ ([1]; 20 mg/kg P.O.)
O=C(O)COc1ccc(C(=O)c2cc3ccccc3o2)c(Cl)c1Cl [Example 1, 4-(2-benzofuryl-keto)-2,3-dichloro-phenoxyacetic acid] | < 1000 mg/kg | 1.56 | 1.3 | 1.74 | 1.52 | 0.87 | – | – | – | – | – | – | –
O=C(O)COc1ccc(C(=O)c2cc3ccccc3s2)c(Cl)c1Cl [Example 2, 4-(2-benzothienyl-keto)-2,3-dichloro-phenoxyacetic acid] | – | 1.05 | 1.2 | 0.91 | 1.18 | 1.29 | > 1000 mg/kg | – | – | – | – | – | –
O=C(O)COc1ccc(C(=O)c2sc3ccccc3c2Cl)c(Cl)c1Cl [Example 3, 4-[2-(3-chloro)-benzothienyl-keto]-2,3-dichloro-phenoxy acetic acid] | – | 1.26 | 1.3 | 1.17 | 1.29 | 1.10 | – | > 1000 mg/kg | – | – | – | – | –
CCc1oc2ccccc2c1C(=O)c1cc(I)c(O)c(I)c1 [benziodarone, reference compound] | – | – | – | – | – | – | – | – | 1.44 | – | – | – | –
C=C(CC)C(=O)c1ccc(OCC(=O)O)c(Cl)c1Cl [ethacrynic acid, reference compound] | 600 mg/kg | – | – | – | – | – | – | – | 1.27 | 2.4 | 1.48 | 2.76 | 1.87
NS(=O)(=O)c1cc(C(=O)O)c(NCc2ccco2)cc1Cl [furosemide, reference compound] | – | – | – | – | – | – | – | – | 1.34 | 3.0 | 1.51 | 4.28 | 2.83

— patent publication US4255585A, “Benzoheterocyclic derivatives of phenoxyacetic acid” (Centre European de Recherches Pharmacologique, priority 1975, dated 1981)
